This note sets out measurements from ChEMBL document CHEMBL1201862, “PubChem BioAssay data set” (2004).

Some test systems named below: BT-549; EKVX; RPMI-8226; IGROV-1; SF-268; NCI-H522; M14; HOP-92; OVCAR-8; HL-60; A549; SW-620; SF-539; HCT-116; MDA-MB-231; MCF7; OVCAR-4; UACC-62; SK-OV-3.
Assay in all cases: NCI tumour cell line growth inhibition, 48 h

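Compound exposure: 48 hours, 5 concentrations, 96-well plates. Here, GI50 denotes the concentration required for 50% inhibition of growth.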 Activity calls are given as the source filed them. No stated cut-off is given here; in the data, active = GI50 up to about 1.1 µM and inactive = higher. A value given as a limit tells only on which side of the number the result lay.

`CC(=O)OCCOCn1c2c(c(=S)[nH]c1=O)CCC2`: the GI50 with BT-549, in the assay on EKVX, in the assay on RPMI-8226, in the assay with IGROV-1, in the assay with SF-268 and with NCI-H522 was > 100 µM (inactive) each time. For the same compound, the GI50 in the assay with M14, in the assay on HOP-92, in the assay with OVCAR-8, in the assay with HL-60, in the assay with A549 and in the assay on SW-620 was > 100 µM (inactive) each time. Besides, the GI50 in the assay with SF-539, with HCT-116, in the assay with MDA-MB-231, with MCF7 and in the assay on OVCAR-4 was > 100 µM (inactive) each time.

As for `COc1cc(C2S/C(=C/c3ccccc3)C(=O)N2c2ccc(Cl)c(Cl)c2)cc(OC)c1OC` (configuration not stated), the GI50 with BT-549 was 42.3 µM (inactive); in the assay with EKVX it was 23.1 µM (inactive); with RPMI-8226, 46.3 µM (inactive); in the assay on IGROV-1, 22.5 µM (inactive); with SF-268 it was 11.7 µM (inactive); with UACC-62 it was 0.78 µM (active). The GI50 is 14.1 µM (inactive) in the assay with NCI-H522; 28.8 µM (inactive) in the assay on M14; 32.9 µM (inactive) in the assay with HOP-92; > 72.3 µM (inactive) with OVCAR-8; 15.7 µM (inactive) in the assay with HL-60; > 91 µM (inactive) in the assay on SK-OV-3. For the same compound, the GI50 in the assay on A549 was 53.8 µM (inactive); with SW-620, 31 µM (inactive); in the assay on HCT-116, 19.3 µM (inactive); with MDA-MB-231, > 50.8 µM (inactive); in the assay with MCF7 it was 22.3 µM (inactive); with OVCAR-4 it was 60.8 µM (inactive).

For the compound `C=CCN1C(=O)C[C@H](Cc2ccccc2)NC(=O)C[C@H](Cc2ccccc2)N(CC=C)C(=O)C[C@H](Cc2ccccc2)NC(=O)C[C@@H]1Cc1ccccc1`, the GI50 in the assay on BT-549 was 95.5 µM (inactive); in the assay with EKVX it was 0.942 µM (active); in the assay on RPMI-8226, 2.76 µM (inactive); with IGROV-1, 20 µM (inactive); in the assay on SF-268, 6.12 µM (inactive); in the assay on UACC-62, 6.34 µM (inactive). Moreover, the GI50 in the assay on M14 was 8.09 µM (inactive); with HOP-92, 4.48 µM (inactive); in the assay on OVCAR-8, 39.4 µM (inactive); in the assay with HL-60, 3.35 µM (inactive); in the assay on SK-OV-3, 34 µM (inactive); with A549, 4.83 µM (inactive). Also, the GI50 was 62.7 µM (inactive) with SW-620; 46.1 µM (inactive) with SF-539; 14.8 µM (inactive) in the assay on HCT-116; 8.79 µM (inactive) with MDA-MB-231; 4.04 µM (inactive) in the assay on MCF7; 4.6 µM (inactive) in the assay on OVCAR-4.

For the compound `Cc1ccc([N+](=O)[O-])cc1S(=O)(=O)Nc1ccc(C2=NN(S(=O)(=O)c3cc([N+](=O)[O-])ccc3C)C(c3ccccc3)C2)cc1` (configuration not stated), the GI50 is 21.8 µM (inactive) with BT-549; 28.8 µM (inactive) in the assay with EKVX; 22.3 µM (inactive) in the assay with RPMI-8226; 29.3 µM (inactive) with IGROV-1; 17.6 µM (inactive) with SF-268; 16 µM (inactive) with UACC-62. Also, the GI50 in the assay with NCI-H522 was 15.7 µM (inactive); in the assay with M14, 30.9 µM (inactive); in the assay with HOP-92 it was 35.8 µM (inactive); with OVCAR-8, 42.2 µM (inactive); in the assay with HL-60, 35.6 µM (inactive); with SK-OV-3, 27.4 µM (inactive). Moreover, the GI50 in the assay with A549 was 29.4 µM (inactive); in the assay on SW-620 it was 50.5 µM (inactive); in the assay on HCT-116, 18.5 µM (inactive); in the assay with MDA-MB-231, 26.1 µM (inactive); in the assay on MCF7 it was 30.8 µM (inactive); in the assay with OVCAR-4, 33.9 µM (inactive).

Turning to `Cc1nc2c(sc(=S)n2-c2ccccc2)c2nc3ncccc3n12`, the GI50 with BT-549 is > 100 µM (inactive); with EKVX it was > 100 µM (inactive); with RPMI-8226, > 100 µM (inactive); in the assay with IGROV-1, > 100 µM (inactive); with SF-268, 66.7 µM (inactive); with UACC-62 it was > 100 µM (inactive). The GI50 with NCI-H522 was > 100 µM (inactive); in the assay with M14, > 100 µM (inactive); in the assay on HOP-92, > 100 µM (inactive); in the assay with OVCAR-8 it was > 100 µM (inactive); in the assay with HL-60, > 100 µM (inactive); with SK-OV-3, 33 µM (inactive). Moreover, the GI50 with A549 is > 100 µM (inactive); with SW-620 it was > 100 µM (inactive); in the assay on HCT-116, > 100 µM (inactive); in the assay on MDA-MB-231 it was 45.1 µM (inactive); with MCF7 it was > 100 µM (inactive).

For the compound `O=c1oc2c([N+](=O)[O-])cc([N+](=O)[O-])cc2c2ccccc12`, the GI50 with BT-549 is 59.6 µM (inactive); in the assay with EKVX, > 100 µM (inactive); with RPMI-8226 it was > 100 µM (inactive); with IGROV-1, > 100 µM (inactive); with SF-268 it was > 100 µM (inactive); in the assay with UACC-62, > 100 µM (inactive). The GI50 with NCI-H522, in the assay on M14, with HOP-92, in the assay on OVCAR-8, in the assay on HL-60 and in the assay with A549 was > 100 µM (inactive) throughout. The GI50 in the assay with SW-620, with SF-539, in the assay on HCT-116, in the assay with MDA-MB-231, with MCF7 and in the assay with OVCAR-4 was > 100 µM (inactive) in each case.

Turning to `COC(=O)NC1C(C)OC(OC2C/C=C(/C)C3C=CC4C(OC5CC(OC6CC(OC7CC(O)C(O)C(C)O7)C(OC7CC(O)C(OC)C(C)O7)C(C)O6)C(O)C(C)O5)C(C)CC(C)C4C3(C)C(=O)C3=C(O)C4(CC(C)C(CO)=CC4/C=C\2C)OC3=O)CC1(C)[N+](=O)[O-]` (configuration not stated), the GI50 in the assay on BT-549 is 20.8 µM (inactive); with EKVX, 14.4 µM (inactive); in the assay with RPMI-8226 it was 1.6 µM (inactive); in the assay with IGROV-1, 10.4 µM (inactive); with SF-268, 11.6 µM (inactive); in the assay with UACC-62, 4.14 µM (inactive). Moreover, the GI50 with NCI-H522 is 2.99 µM (inactive); in the assay on M14, 17.1 µM (inactive); in the assay with HOP-92 it was 6.24 µM (inactive); in the assay on OVCAR-8 it was 8.57 µM (inactive); with HL-60, 2.54 µM (inactive); in the assay with A549, 5.04 µM (inactive). Moreover, the GI50 was 5.24 µM (inactive) with SW-620; 17.8 µM (inactive) with SF-539; 1.59 µM (inactive) with HCT-116; 12 µM (inactive) in the assay on MDA-MB-231; 11.7 µM (inactive) in the assay on MCF7; 17.5 µM (inactive) in the assay with OVCAR-4.

Consider `CSC(SC)=C(C#N)C(=O)Nc1cccc(Cl)c1`, for which the GI50 with BT-549 was 36.6 µM (inactive); in the assay with EKVX, > 100 µM (inactive); in the assay on IGROV-1, 69.2 µM (inactive); in the assay on SF-268 it was > 100 µM (inactive); in the assay on UACC-62 it was 59.6 µM (inactive); in the assay on NCI-H522, 17.5 µM (inactive). The GI50 is 47.8 µM (inactive) in the assay on M14; 21 µM (inactive) in the assay with HOP-92; 48.8 µM (inactive) in the assay with OVCAR-8; 15.4 µM (inactive) with HL-60; 65.8 µM (inactive) with SK-OV-3; 65.9 µM (inactive) in the assay on A549. Further, the GI50 with SW-620 is 39.8 µM (inactive); in the assay with SF-539, 57.5 µM (inactive); with HCT-116, 30.6 µM (inactive); in the assay with MDA-MB-231, > 100 µM (inactive); in the assay on MCF7, 34.8 µM (inactive); with OVCAR-4, 27.9 µM (inactive).
